One data set concerns P. aeruginosa PA14. As to the kind of experiment: Minimum inhibitory concentration (MIC) assay. Format: cell-based, Pseudomonas aeruginosa.
In the next data set the target is T1, MMP-1 (Homo sapiens, UniProt P03956).
T1 sequence (P03956 100-469): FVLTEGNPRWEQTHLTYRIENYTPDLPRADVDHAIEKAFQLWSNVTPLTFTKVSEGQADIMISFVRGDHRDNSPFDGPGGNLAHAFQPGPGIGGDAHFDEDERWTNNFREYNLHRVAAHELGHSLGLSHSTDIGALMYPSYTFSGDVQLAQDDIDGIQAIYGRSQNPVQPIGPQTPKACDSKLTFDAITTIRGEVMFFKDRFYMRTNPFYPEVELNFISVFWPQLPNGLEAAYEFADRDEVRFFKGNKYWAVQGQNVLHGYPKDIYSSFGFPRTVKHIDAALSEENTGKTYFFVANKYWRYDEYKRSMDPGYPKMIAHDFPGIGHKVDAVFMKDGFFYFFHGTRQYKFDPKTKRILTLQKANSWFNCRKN
The data set is described as follows: Inhibition assay with human off-target MMP-1. The class given is biochemical. The following applies: Table S2; concentration not given.

The next data set addresses T2, MMP-2 (Homo sapiens, UniProt P08253).
T2 sequence (P08253 110-660): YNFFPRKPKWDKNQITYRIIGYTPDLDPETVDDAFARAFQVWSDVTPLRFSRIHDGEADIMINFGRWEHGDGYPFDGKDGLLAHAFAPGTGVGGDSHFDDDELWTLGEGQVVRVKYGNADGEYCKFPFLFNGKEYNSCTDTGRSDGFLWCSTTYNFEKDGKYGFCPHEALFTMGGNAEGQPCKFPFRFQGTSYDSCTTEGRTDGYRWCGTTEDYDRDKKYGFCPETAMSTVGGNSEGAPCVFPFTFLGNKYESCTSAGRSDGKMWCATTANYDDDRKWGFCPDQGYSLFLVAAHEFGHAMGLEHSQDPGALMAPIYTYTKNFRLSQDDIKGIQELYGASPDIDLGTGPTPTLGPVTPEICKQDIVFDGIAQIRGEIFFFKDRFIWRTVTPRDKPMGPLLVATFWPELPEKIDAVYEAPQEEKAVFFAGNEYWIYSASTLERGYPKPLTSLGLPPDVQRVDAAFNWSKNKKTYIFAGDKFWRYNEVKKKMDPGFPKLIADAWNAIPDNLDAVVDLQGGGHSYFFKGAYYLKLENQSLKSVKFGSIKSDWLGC
The data set is described as follows: Inhibition assay with human off-target MMP-2. Format: biochemical. The following applies: Table S2; concentration not given.

The target in another data set is MMP-3 (Homo sapiens, UniProt P08254). As to the kind of experiment: Inhibition assay with human off-target MMP-3. Format: biochemical. The following applies: Table S2; concentration not given.
MMP-3, sequence (P08254 100-477): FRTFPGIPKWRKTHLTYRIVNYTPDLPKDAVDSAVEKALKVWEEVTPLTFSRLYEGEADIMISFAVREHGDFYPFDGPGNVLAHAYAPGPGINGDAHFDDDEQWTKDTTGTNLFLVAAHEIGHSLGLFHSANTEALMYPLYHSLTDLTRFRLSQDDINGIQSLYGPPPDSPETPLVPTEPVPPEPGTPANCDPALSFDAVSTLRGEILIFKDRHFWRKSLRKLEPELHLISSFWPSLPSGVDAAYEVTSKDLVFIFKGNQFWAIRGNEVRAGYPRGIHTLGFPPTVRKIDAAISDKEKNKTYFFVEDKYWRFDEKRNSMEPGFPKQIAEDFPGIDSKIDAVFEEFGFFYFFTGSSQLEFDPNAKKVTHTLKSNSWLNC
In the next data set the target is T3, MMP-7 (Homo sapiens, UniProt P09237).
T3 sequence (P09237 95-267): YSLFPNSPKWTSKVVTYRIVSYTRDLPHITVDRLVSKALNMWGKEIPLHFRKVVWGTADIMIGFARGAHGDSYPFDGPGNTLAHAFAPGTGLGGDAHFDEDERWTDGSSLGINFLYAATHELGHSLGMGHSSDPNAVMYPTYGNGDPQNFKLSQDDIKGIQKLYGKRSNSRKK
The data set is described as follows: Inhibition assay with human off-target MMP-7. Format: biochemical. Particulars: Table S2; concentration not given.

The target in the next data set is MMP-8 (Homo sapiens, UniProt P22894). As to the kind of experiment: Inhibition assay with human off-target MMP-8. The class given is biochemical. Particulars: Table S2; concentration not given.
MMP-8, sequence (P22894 101-467): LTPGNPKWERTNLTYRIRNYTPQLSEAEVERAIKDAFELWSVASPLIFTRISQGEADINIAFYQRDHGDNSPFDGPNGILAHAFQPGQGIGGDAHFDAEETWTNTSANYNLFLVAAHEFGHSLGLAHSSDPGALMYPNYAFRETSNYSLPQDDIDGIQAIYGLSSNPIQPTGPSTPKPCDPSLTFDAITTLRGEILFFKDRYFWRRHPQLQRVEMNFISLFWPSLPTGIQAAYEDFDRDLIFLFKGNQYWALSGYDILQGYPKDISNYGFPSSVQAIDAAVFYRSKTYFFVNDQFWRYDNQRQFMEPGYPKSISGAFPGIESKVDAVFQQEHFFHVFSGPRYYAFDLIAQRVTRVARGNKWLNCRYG
The next data set addresses MMP-14 (Homo sapiens, UniProt P50281). As to the kind of experiment: Inhibition assay with human off-target MMP-14. Format: biochemical. Particulars: Table S2; concentration not given.
A further data set has as its target ADAM17 (Homo sapiens, UniProt P78536). The data set is described as follows: Inhibition assay with human off-target ADAM17 (TACE). The class given is biochemical.
Another data set deals with HDAC-3 (Homo sapiens, UniProt O15379). The data set is described as follows: Inhibition assay with human off-target HDAC-3. Format: biochemical. The following applies: Table S2.
HDAC-3, sequence (O15379 whole entry): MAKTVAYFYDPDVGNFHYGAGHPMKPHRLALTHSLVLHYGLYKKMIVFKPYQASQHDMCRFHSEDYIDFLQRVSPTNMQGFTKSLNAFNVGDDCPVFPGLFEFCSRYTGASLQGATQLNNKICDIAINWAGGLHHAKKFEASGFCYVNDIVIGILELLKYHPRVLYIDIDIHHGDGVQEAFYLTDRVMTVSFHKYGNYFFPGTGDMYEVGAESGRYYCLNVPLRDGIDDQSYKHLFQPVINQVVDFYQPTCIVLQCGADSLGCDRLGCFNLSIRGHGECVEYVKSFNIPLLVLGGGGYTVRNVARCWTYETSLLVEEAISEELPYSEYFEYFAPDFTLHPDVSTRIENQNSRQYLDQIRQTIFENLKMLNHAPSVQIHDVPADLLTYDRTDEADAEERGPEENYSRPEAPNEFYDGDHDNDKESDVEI
HDAC-3, sequence (Q9Y618 395-489 partner limits assumed): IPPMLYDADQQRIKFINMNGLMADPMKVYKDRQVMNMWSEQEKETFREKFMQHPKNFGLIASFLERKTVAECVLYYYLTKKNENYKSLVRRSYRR
The target of a further data set is T4, HDAC-8 (Homo sapiens, UniProt Q9BY41).
T4 sequence (Q9BY41 1-377): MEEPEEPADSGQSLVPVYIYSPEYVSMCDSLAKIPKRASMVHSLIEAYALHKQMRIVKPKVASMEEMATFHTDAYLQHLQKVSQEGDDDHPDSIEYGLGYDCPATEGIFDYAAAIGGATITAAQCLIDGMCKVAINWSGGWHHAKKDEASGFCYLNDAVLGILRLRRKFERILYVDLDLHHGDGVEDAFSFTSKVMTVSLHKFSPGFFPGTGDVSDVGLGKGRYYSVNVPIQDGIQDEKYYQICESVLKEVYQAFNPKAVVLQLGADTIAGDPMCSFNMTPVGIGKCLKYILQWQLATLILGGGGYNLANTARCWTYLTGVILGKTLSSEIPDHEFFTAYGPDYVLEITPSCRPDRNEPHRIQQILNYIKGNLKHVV
As to the kind of experiment: Inhibition assay with human off-target HDAC-8. Format: biochemical. Particulars: Table S2.

Data set [1] deals with Galleria mellonella larvae. As to the kind of experiment: Galleria mellonella larvae survival model with P. aeruginosa PA14 supernatant. The class given is in vivo. Particulars: for survival of larvae: 0.25 nmol compound injected with PA14 supernatant, three days of incubation, compared to PBS injected larvae; for survival of larvae, compound in PBS: compound in PBS without PA14 supernatant. The protocol: We next analyzed the antivirulence activity of LasB inhibitors in vivo, using a simple model based on G. mellonella larvae. […] We injected the larvae with the supernatant (s.n.) of P. aeruginosa PA14 with or without 0.25 nmol of either 4 or 7 g, incubated them for three days and recorded the survival once per day (Figure 3). […] Treatment of larvae with 0.25 nmol of compound 7 g increased survival up to 60% compared to PBS injected larvae.
PA14 s.n. was also present during compound treatment. PBS served as a negative control (dot dash). […]
(§1) Preparation of P. aeruginosa supernatant and LasB activity evaluation. A culture of a single colony of PA14 was grown in lysogeny broth medium at 28 °C with constant shaking at 130 rpm for 3 days. Then, the culture was centrifuged at 4 °C, 5000 rpm for 30 minutes. Finally, the supernatant was passed through a membrane filter of […] to sterilize it. The supernatant

A short description of data set [2]: in vitro. Particulars: human.
The nature of data set [3]: in vitro. Particulars: human. This is another data set of the same source.
The nature of data set [4]: in vitro. Particulars: human. The source holds these as a separate data set.
The subject of data set [5] is human hepatoma cell line (HepG2). As to the kind of experiment: Cytotoxicity assay, HepG2. The following applies: HepG2, at 100 µM.
For data set [6], the system named is human embryonic kidney (HEK) 293 cells. As to the kind of experiment: Cytotoxicity assay, HEK 293. The following applies: HEK cells, at 100 µM.
Data set [7] concerns the target T5, LasB (Pseudomonas aeruginosa, UniProt Q02RJ6).
T5 construct: The purification of LasB from P. aeruginosa P14 supernatant and the; made in house; host or cells: P. aeruginosa PA14 (native producer), culture supernatant
As to the kind of experiment: biochemical. Format: biochemical. Here is the method:
LasB Inhibition Assay. […]
as §1

A short description of a further data set: Cytotoxicity assay, A549. Particulars: human, A549 cells.
Data set [8] in a line: Cytotoxicity assay, HepG2. The following applies: human, HepG2 cells.
Data set [9] is described as follows: Cytotoxicity assay, HEK 293. Particulars: human, HEK 293 cells.
In data set [10] the target is T5, LasB. The following applies: read-out: IC50 (known LasB inhibitors); Figure 1, known LasB inhibitors; cited from earlier work.
Data set [11] concerns the target T5, LasB. The data set is described as follows: Calculation of Ligand Efficiency (LE) and Lipophilic Ligand Efficiency (LLE). Particulars: calculated. From the text: Although structure‐guided exploration of the N‐aryl ring substitution provided us with a strong starting point for lead optimization, systematic variation of the substituent in the α‐position (R^1) should be considered to exploit the lipophilicity of the S2′ pocket. In addition, compound 7 g only occupies a small fraction (approx. 24%) of the total predicted binding pocket volume, leaving the S2′ pocket largely untouched (Figure S4). Therefore, extension of the thiol group in that direction should allow additional ligand‐protein interactions, leading to a further improved inhibitory potency. […]

Read-outs that look alike come from different tables or passages of the source.

T5 sequence (Q02RJ6 198-498): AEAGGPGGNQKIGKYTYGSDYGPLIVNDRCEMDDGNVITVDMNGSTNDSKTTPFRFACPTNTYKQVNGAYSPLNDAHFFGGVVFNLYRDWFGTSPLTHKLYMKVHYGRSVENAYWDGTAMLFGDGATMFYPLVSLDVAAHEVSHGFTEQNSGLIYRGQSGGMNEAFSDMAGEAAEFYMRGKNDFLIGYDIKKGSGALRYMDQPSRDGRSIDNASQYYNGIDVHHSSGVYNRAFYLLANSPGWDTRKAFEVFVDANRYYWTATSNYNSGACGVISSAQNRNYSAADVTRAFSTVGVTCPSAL
ADAM17, sequence (P78536 215-824): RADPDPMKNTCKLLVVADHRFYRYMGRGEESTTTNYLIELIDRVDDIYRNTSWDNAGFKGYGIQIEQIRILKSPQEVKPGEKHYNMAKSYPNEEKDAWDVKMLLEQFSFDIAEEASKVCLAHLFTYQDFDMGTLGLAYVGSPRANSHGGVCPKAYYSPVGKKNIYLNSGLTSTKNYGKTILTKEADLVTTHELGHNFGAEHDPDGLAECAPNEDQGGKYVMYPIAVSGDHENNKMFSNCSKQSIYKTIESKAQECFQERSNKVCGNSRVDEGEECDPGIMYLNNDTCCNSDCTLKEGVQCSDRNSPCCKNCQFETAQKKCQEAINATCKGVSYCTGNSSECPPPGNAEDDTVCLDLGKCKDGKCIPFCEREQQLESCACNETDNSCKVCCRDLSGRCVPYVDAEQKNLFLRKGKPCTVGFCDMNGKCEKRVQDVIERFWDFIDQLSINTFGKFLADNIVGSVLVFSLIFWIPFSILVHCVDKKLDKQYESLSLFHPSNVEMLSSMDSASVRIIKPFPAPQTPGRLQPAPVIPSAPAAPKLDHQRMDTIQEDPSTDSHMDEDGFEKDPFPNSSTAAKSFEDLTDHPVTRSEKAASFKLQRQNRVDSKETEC

A word on the MIC: it is the least concentration at which growth counts as inhibited. One may read the IC50 as the concentration that gives 50% inhibition. Take `O=C(CS)Nc1ccc(Cl)c(Cl)c1` [Compound 4, N‐(3,4‐dichlorophenyl) mercaptoacetamide]: the minimum inhibitory concentration (MIC) with P. aeruginosa PA14 (Pseudomonas aeruginosa) was greater than 100 µM. Also, the “inhibition of MMP-1” value against MMP-1 is reported as “n.i. (n.i. = <10% inhibition)”. Also, on MMP-2, the “inhibition of MMP-2” value is recorded as “n.i. (n.i. = <10% inhibition)”. The “inhibition of MMP-3” value against MMP-3 is recorded as “n.i. (n.i. = <10% inhibition)”. Besides, at MMP-7, the “inhibition of MMP-7” value is reported as “n.i. (n.i. = <10% inhibition)”. In addition, the “inhibition of MMP-8” value at MMP-8 is recorded as “n.i. (n.i. = <10% inhibition)”. At MMP-14, the “inhibition of MMP-14” value was “n.i. (n.i. = <10% inhibition)”. Further, the concentration for half-maximal inhibition (IC50) on ADAM17, on HDAC-3, against HDAC-8, in “in vitro [2]”, in “in vitro [3]” and in the data set “in vitro [4]” was greater than 100 µM throughout. Moreover, the survival of larvae entry in data set [1] is recorded as “virtually no improvement in survival”. Also, the “survival of larvae, compound in PBS” value in data set [1] is given as 100%. The results for the reduction in viability in data set [5] and in data set [6] were 23±3% and 33±10%, respectively.

Take `O=C(Nc1ccccc1)C(S)Cc1ccccc1` (stereo not shown) [7 d]: on LasB [7] (versus compound 7 a), the “fold improvement in IC50 value compared to 7 a” value is “two‐fold”. The MIC in the data set on P. aeruginosa PA14 and against P. aeruginosa PA14 (Pseudomonas aeruginosa) was greater than 100 µM each time. On MMP-1, the “inhibition of MMP-1” value was “n.i. (n.i. = <10% inhibition)”. The “inhibition of MMP-2” value at MMP-2 was “n.i. (n.i. = <10% inhibition)”. The “inhibition of MMP-3” value against MMP-3 was “n.i. (n.i. = <10% inhibition)”. Besides, the “inhibition of MMP-7” value at MMP-7 was “n.i. (n.i. = <10% inhibition)”. For the same compound, the “inhibition of MMP-8” value on MMP-8 is 26 ± 4%. Further, the “inhibition of MMP-14” value at MMP-14 is on record as “n.i. (n.i. = <10% inhibition)”. Further, the half-maximal inhibitory concentration (IC50) is greater than 100 µM on HDAC-3; greater than 100 µM at HDAC-8; greater than 100 µM in “Cytotoxicity assay, A549”; greater than 100 µM in data set [8]; greater than 100 µM in data set [9].

With `CC(C)C[C@H](NP(=O)(O)O[C@@H]1O[C@@H](C)[C@H](O)[C@@H](O)[C@H]1O)C(=O)N[C@@H](Cc1c[nH]c2ccccc12)C(=O)O` [Compound 1, phosphoramidon], at LasB [10], the IC50 is 207 nM.

Consider `Cc1ccc(NC(=O)C(S)Cc2ccccc2)cc1` (stereo not shown) [7 g], for which the IC50 at LasB [7] is 480 ± 40 nM; at ADAM17 (Table S2, read-out: IC50 ADAM17), 4.8 ± 1.5 µM; in “Cytotoxicity assay, A549” it was greater than 100 µM; in [8] it was greater than 100 µM; in [9], greater than 100 µM. This compound also registered an MIC against P. aeruginosa PA14 (Pseudomonas aeruginosa) greater than 100 µM. For the same compound, the survival of larvae result in data set [1] was “up to 60%”. Besides, the “survival of larvae, compound in PBS” value in data set [1] was 100%. The “Ligand Efficiency (LE)” value on LasB [11] was 0.43. The “Lipophilic Ligand Efficiency (LLE)” value at LasB [11] was 2.37.

As for `Cc1cccc(NC(=O)C(S)Cc2ccccc2)c1` (stereo not shown) [7 f], on LasB [7], the IC50 was 1000 ± 400 nM.

On to `O=C(Nc1ccc(Cl)c(Cl)c1)C(S)CC1CCCCC1` (stereo not shown) [7 b], for which, at LasB [7], it took 12000 ± 3000 nM to reach half-maximal inhibition (IC50).

Compound `O=C(Nc1ccc(Cl)c(Cl)c1)C(S)CC1CC1` (stereo not shown) [7 c] displayed a 50% inhibitory concentration (IC50) at LasB [7] of 6300 ± 1200 nM.

`Cc1ccccc1NC(=O)C(S)Cc1ccccc1` (stereo not shown) [7 e] registered a concentration for half-maximal inhibition (IC50) against LasB [7] of 2400 ± 1000 nM.
